We go through five molecules from patent publication US20230416239A1, “COMPOUNDS AND METHODS FOR TREATING A CYTOKINE-MEDIATED DISEASE” (CONSERVATOIRE NATIONAL DES ARTS ET MÉTIERS, priority 2020, published 2023).

One assay deals with TNFa/TNFRI interaction (Homo sapiens, UniProt P01375). The assay can be described thus: TNFa/TNFRI interaction displacement test.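 As to Displacement EC50 TNFa in presence of compound: Difference: SPD304 reference at 20 µM final.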 Particulars: for Displacement (%): compounds at 50 μM, human TNFRI 100 ng/ml. The class given is binding. An outline of the steps: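 Plates coated overnight at 4° C with human TNFRI (100 ng/ml) and blocked with 2% BSA, then test mixtures were incubated overnight at 4° C. Bound cytokine detected with biotinylated anti-cytokine antibody (2 h, 37° C) and avidin-HRP, read as OD at 450 nm.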

The next assay addresses TNFα (Homo sapiens, UniProt P01375). Put plainly: Immunoassay binding test, TNFa. Particulars: compounds 100 to 0.78 μM; TNFα 10 ng/ml, receptor 100 ng/ml; read-out: BINDING TNF IC50. An outline of the steps: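 ELISA-type binding test: receptor-coated plates blocked with 2% BSA, then cytokine (six-point dilution series) preincubated 2 h at 37 °C and bound overnight at 4 °C. Detection used biotinylated anti-cytokine antibody and avidin-HRP, read as OD at 450 nm. For IL-6, IL-6Ra was present at 200 ng/ml final.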

Another assay deals with IL-13 (Homo sapiens, UniProt P35225). The assay can be described thus: Immunoassay binding test, IL-13. Particulars: for pIC50: IL-13 400 ng/ml, receptor 100 ng/ml, read-out: BINDING IL13 IC50. An outline of the steps:
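Receptor-coated plates; compounds (100 to 0.78 μM final) preincubated 2 h at 37° C with fixed cytokine, then bound to receptor overnight at 4° C. Bound cytokine detected with biotinylated anti-cytokine antibody and avidin-HRP, OD 450 nm.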

Assay [1] relates to hepatic shock induced by LPS/D-Galactosamine. Put plainly: LPS/D-Galactosamine induced lethal shock. The class given is in vivo, Balb/C mice. The conditions noted are these: 5 mg force-fed in DMSO eight hours before LPS/D-Galactosamine i.p.; 48 hours. As to the method:
7 week-old Balb/C mice (n=10 per group) were force-fed with 100 μl of a solution of DMSO containing 5 mg of compounds 33, 65 or 71 eight hours before receiving an intraperitoneal injection of 200 μl of PBS containing 0.2 μg of LPS and 20 mg of D-Galactosamine. A negative control group (vehicle) was force-fed with 100 μl of a solution of DMSO alone eight hours before to be injected with 200 μl of LPS/D-Galactosamine solution. Mice survival was monitored for 48 hours after the injection of LPS/D-Galactosamine.

A further assay deals with IL-6 (Homo sapiens, UniProt P05231). Put plainly: Immunoassay binding test, IL-6 (gp130 receptor, IL-6Ra present). The conditions noted are these: IL-6Ra 200 ng/ml. Summed up:
(§1)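 Detection used OD at 450 nm after biotinylated anti-cytokine antibody and avidin-HRP were applied to receptor-coated wells. Those wells had received, overnight at 4 °C, cytokine preincubated 2 h at 37 °C with compound at final 100 to 0.78 μM. IL-6 mixtures further contained IL-6Ra at 200 ng/ml final.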

The target in another assay is T1, IL-4 (Homo sapiens, UniProt P05112).
T1 sequence (P05112 25-153): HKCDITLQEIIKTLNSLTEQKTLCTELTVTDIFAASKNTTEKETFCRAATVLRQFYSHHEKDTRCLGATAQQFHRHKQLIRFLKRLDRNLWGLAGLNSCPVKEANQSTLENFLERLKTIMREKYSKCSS
The assay can be described thus: Immunoassay binding test, IL-4. Particulars: for pIC50: IL-4 400 ng/ml, receptor 100 ng/ml, read-out: BINDING IL4 IC50. Summed up:
as §1

pIC50: −log10 of the molar value.

IL-13, sequence (P35225 25-146, species assumed): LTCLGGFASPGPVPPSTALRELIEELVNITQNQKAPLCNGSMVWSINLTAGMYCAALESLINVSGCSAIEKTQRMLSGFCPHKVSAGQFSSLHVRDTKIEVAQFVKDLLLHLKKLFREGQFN
TNFα, sequence (P01375 77-233 limits assumed, species assumed): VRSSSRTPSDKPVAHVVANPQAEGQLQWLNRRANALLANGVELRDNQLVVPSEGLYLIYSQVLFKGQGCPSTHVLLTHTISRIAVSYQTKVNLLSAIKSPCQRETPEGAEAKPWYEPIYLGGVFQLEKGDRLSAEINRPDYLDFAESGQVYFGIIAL
TNFa/TNFRI interaction, sequence (P01375 77-233 limits assumed): as the sequence (P01375 77-233 limits assumed, species assumed) above
IL-6, sequence (P05231 30-212, species assumed): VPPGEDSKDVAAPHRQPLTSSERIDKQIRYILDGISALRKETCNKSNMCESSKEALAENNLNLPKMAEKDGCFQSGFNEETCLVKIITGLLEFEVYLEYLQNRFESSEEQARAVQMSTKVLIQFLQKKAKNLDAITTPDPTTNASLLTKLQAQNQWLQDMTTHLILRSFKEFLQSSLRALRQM

Regarding `O=S(=O)(c1ccccc1)n1cc(CN(CCCCCNC2CCCCC2)Cc2ccncc2)c2ccccc21` [Compound 33], the “Displacement EC50 TNFa in presence of compound: Difference” value at TNFa/TNFRI interaction (Compound EC50 minus SPD304 EC50) worked out at 0.0116 µg/mL. On TNFa/TNFRI interaction, the “Displacement (%)” value stood at 273%. The pIC50 at TNFα was 5.34. Further, on IL-13, the “BINDING IL13 % Neutra at 100 μM” value is listed as 95.4% and the pIC50 was 4.98. This molecule registered a survival in assay [1] of 100%. The “BINDING IL6 % Neutra at 100 μM” value on IL-6 is −11.8%. For the same molecule, at IL-4, the “BINDING IL4 % Neutra at 100 μM” value is 96% and the pIC50 was 5.39.
On to `CN(CCOCCN(Cc1cccnc1F)Cc1cn(S(=O)(=O)c2ccccc2)c2ccccc12)C1CCCCC1` [Compound 65, N-(2-(2-(((2-fluoropyridin-3-yl)methyl)((1-(phenylsulfonyl)-1H-indol-3-yl)methyl)amino)ethoxy)ethyl)-N-methylcyclohexanamine], for which the “Displacement (%)” value on TNFa/TNFRI interaction is recorded as 224%. Also, the pIC50 at TNFα was 5.23. For the same molecule, on IL-13, the “BINDING IL13 % Neutra at 100 μM” value stood at 79.3% and the pIC50 is below 4.30. Further, the survival in assay [1] stood at 60%. Also, the “BINDING IL6 % Neutra at 100 μM” value at IL-6 turned out to be 0%. Besides, on IL-4, the “BINDING IL4 % Neutra at 100 μM” value turned out to be 86.5% and the pIC50 is 5.26.
`O=S(=O)(c1ccccc1)n1cc(CN(CCCCNC2CCCC2)Cc2cccnc2F)c2ccccc21` [Compound 71, N′-cyclopentyl-N^4-((2-fluoropyridin-3-yl)methyl)-N^4-((1-(phenylsulfonyl)-1H-indol-3-yl)methyl)butane-1,4-diamine]: the “Displacement (%)” value on TNFa/TNFRI interaction is on record as 199%. In addition, on TNFα, the pIC50 is 5.01. Besides, at IL-13, the “BINDING IL13 % Neutra at 100 μM” value stood at 89.7% and the pIC50 was below 4.30. Moreover, the survival in assay [1] is 60%. Besides, at IL-6, the “BINDING IL6 % Neutra at 100 μM” value turned out to be 2%. Besides, on IL-4, the “BINDING IL4 % Neutra at 100 μM” value was 92.4% and the pIC50 was 5.22.
As for `CCCCN(CCCCN(Cc1cccnc1F)Cc1cn(S(=O)(=O)c2ccccc2)c2ccccc12)C1CCCCC1` [Compound 68, N′-butyl-N′-cyclohexyl-N^4-((2-fluoropyridin-3-yl)methy)-N^4-((1-(phenylsulfonyl)-1H-indol-3-yl)methyl)butane-1,4-diamine], the “Displacement (%)” value on TNFa/TNFRI interaction turned out to be 219%. Moreover, at TNFα, the pIC50 was 5.00. Further, at IL-13, the “BINDING IL13 % Neutra at 100 μM” value is listed as 81.6% and the pIC50 was 4.76. The “BINDING IL6 % Neutra at 100 μM” value on IL-6 was found to be 0%. In addition, at IL-4, the “BINDING IL4 % Neutra at 100 μM” value turned out to be 86.0% and the pIC50 was 5.38.
In the case of `FC(F)(F)c1cccc(-n2cc(CN(CCNC3CCCCC3)Cc3cccnc3)c3ccccc32)c1` [Compound 30], the “Displacement (%)” value on TNFa/TNFRI interaction is given as 106%. The pIC50 at TNFα was 4.70. Besides, at IL-13, the “BINDING IL13 % Neutra at 100 μM” value is recorded as 93.6% and the pIC50 was below 4.30. The “BINDING IL6 % Neutra at 100 μM” value at IL-6 was 16.8%. For the same molecule, on IL-4, the “BINDING IL4 % Neutra at 100 μM” value was 97.3% and the pIC50 was 5.40.
